In PMC7411710, “Biocatalysis of D,L-Peptide Nanofibrillar Hydrogel” (Molecules, 2020):
Each block holds one compound with its values, some of them ahead of it. Non-standard residues stand in square brackets, D forms with d. Residues, ends and D or L forms follow the SMILES beside them.

Experiments:
[1] = pH 7.4; without Zn2+; cited from earlier work
Text: Table 2 Comparison of catalytic performance with literature data on short peptides without Zn^2+. | column: kcat/KM (s^−1M^−1)

[2] = cited from earlier work
Text: However, at present, it is still not possible to predict exactly the performance of a de novo designed peptide. Amongst the various approaches to achieve a self-assembling short peptide, an attractive strategy features the inclusion of both D- and L-amino acids at specific positions along a heterochiral sequence, whereby nanostructured hydrogels can be formed even with just three amino acids, while their homochiral isomers typically precipitate in water. These supramolecular systems feature amphipathic assemblies, whereby the different stereoconfiguration allows displaying hydrophobic s ...

oscillatory rheometry = assay type: physicochemical; conditions: 10 mM; 1 Hz; 25 °C
Method: His–Leu–^DLeu–Ile–His–Leu–^DLeu–Ile (Scheme 1) was synthesized in solid phase and purified by reverse-phase HPLC, following published procedures. Peptide identity and purity was confirmed by ^1H-NMR and electrospray ionization (ESI)-MS (see Supplementary Materials). […] A pH change to neutral was then used to trigger fibrillization, which, at higher concentrations, led to the formation of self-supportive hydrogels, with a minimum gelling concentration (mgc) of 10 mM. The viscoelastic properties of the hydrogel were assessed by oscillatory rheometry (see Supplementary Materials). At mgc, the peptide gelled immediately and reached a G′ of 1 kPa, which remained stable over time. Frequency sweeps confirmed G′ > G″, with both values being independent of applied frequency, as expected for a stable hydrogel. Stress sweeps confirmed a linear viscoelastic region until 1 Pa, with a gel-to-sol transition occurring above 10 Pa.
Dynamic time sweep rheological analysis was conducted on a Malvern Kinexus Ultra Plus Rheometer (Alfatest, Milan, Italy) with a 20-mm stainless-steel parallel plate geometry. […] Samples were prepared in situ and immediately analyzed with a gap of 1 mm. Time sweeps were recorded using a frequency of 1 Hz and a controlled stress of 0.50 Pa. Frequency sweeps were recorded using a controlled stress of 0.50 Pa, and then stress sweeps were recorded using a frequency of 1 Hz.

[3] = water solubility (observation); assay type: physicochemical; conditions: neutral pH

Compound: HSGQQKFQFQFEQQ [self-assembling His peptide, literature catalyst]
kcat/KM [1]: 0.09 s^−1M^−1

Compound: H2KLLLAAA(Nε-palmytoyl)K-NH2 [peptide amphiphile reported by Guler and Stupp]
kcat/KM [1]: 20 s^−1M^−1

Compound: His–^DPhe–^DPhe
concentration of hydrogel formation [2]: 50000 µM

gel-to-sol transition (stress sweep) (oscillatory rheometry): above 10 Pa
water solubility [3]: limited water solubility
Compound: CC[C@H](C)[C@H](NC(=O)[C@@H](CC(C)C)NC(=O)[C@H](CC(C)C)NC(=O)[C@H](Cc1c[nH]cn1)NC(=O)[C@@H](NC(=O)[C@@H](CC(C)C)NC(=O)[C@H](CC(C)C)NC(=O)[C@@H](N)Cc1c[nH]cn1)[C@@H](C)CC)C(=O)O [His–Leu–^DLeu–Ile–His–Leu–^DLeu–Ile] (H-HL[dL]IHL[dL]I-OH)
